One assay addresses T1, human PI3Kα protein (Homo sapiens, UniProt P42336).
T1 construct: purchased Carna Biosciences, Inc; host or cells: baculovirus expression system
Description: PI3Kα enzyme assay (ADP-Glo). The note with it: read-out: PI3Kα enzyme inhibitory activity. The assay is classed as biochemical. The method, boiled down: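 Biotinylated human PI3Kα (baculovirus-expressed, 4.5 nmol/L) pre-incubated 15 min with compound in Tris-HCl pH 7.5, MgCl2, BSA; reaction 60 min at 25° C with 50 μmol/L PIP2 and 100 μmol/L ATP final. ADP quantified by ADP-Glo luminescence; IC50 calculated.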
In general terms: ADP-Glo first removes unused ATP, then detects ADP through luciferase.

Assay [1] concerns the target T2, GST fusion human ERK2 protein (Homo sapiens, UniProt P28482).
T2 construct: purchased Carna Biosciences, Inc; host or cells: E. coli expression system
Description: ERK2 enzyme assay (1). The class given is biochemical. The note with it: ERK2 enzyme assay (1); read-out: ERK2 enzyme inhibitory activity (1). In a few lines:
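Enzyme (2.5 nmol/L, E. coli-expressed) preincubated with compound 15 min at room temperature in HEPES/MgCl2/DTT/Brij35 buffer, pH 7.5; reaction with 4.25 μmol/L FL-Peptide 8 and 43.1 μmol/L ATP for 120 min at 25 °C. Phosphorylated peptide fraction quantified by mobility-shift separation after EDTA stop; IC50 calculated.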

T2 sequence (P28482 whole entry, the tested form may be a part): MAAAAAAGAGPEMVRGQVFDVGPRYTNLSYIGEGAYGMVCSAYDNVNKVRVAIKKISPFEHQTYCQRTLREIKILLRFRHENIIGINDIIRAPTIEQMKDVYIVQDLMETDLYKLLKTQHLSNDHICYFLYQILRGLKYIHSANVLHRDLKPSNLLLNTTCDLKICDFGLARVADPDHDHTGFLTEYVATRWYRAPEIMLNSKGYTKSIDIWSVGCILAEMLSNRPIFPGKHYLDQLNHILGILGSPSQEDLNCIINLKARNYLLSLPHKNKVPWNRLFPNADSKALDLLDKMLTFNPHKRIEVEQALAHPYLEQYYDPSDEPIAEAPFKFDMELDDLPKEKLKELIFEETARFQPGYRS
T1 sequence (P42336 whole entry): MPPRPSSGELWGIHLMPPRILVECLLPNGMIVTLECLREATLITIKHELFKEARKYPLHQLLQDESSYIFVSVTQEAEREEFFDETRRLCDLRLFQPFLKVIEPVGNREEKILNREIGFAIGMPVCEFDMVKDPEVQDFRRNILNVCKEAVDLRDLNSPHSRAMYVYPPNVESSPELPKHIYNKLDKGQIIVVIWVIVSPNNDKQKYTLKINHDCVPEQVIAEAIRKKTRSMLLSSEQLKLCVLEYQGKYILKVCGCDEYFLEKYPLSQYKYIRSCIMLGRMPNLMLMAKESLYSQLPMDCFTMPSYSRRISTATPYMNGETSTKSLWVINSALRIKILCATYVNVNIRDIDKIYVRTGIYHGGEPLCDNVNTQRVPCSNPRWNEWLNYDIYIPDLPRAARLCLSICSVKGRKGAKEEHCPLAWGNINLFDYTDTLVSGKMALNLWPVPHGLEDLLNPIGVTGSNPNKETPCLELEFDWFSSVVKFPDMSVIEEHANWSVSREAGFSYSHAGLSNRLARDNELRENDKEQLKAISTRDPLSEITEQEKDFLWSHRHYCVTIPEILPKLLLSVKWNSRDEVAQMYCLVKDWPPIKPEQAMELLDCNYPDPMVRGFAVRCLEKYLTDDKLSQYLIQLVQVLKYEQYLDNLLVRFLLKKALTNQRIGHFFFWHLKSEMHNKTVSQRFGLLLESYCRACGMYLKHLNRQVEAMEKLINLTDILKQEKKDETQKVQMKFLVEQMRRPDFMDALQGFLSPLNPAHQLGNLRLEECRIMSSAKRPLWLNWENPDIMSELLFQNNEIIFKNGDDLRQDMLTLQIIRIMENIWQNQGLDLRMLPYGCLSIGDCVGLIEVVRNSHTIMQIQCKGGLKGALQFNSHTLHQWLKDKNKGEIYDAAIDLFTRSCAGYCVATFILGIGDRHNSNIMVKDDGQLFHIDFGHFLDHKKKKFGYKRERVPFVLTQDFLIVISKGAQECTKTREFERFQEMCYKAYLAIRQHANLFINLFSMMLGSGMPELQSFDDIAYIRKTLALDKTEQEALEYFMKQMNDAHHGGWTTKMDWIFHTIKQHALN
T1 sequence (P27986 whole entry partner): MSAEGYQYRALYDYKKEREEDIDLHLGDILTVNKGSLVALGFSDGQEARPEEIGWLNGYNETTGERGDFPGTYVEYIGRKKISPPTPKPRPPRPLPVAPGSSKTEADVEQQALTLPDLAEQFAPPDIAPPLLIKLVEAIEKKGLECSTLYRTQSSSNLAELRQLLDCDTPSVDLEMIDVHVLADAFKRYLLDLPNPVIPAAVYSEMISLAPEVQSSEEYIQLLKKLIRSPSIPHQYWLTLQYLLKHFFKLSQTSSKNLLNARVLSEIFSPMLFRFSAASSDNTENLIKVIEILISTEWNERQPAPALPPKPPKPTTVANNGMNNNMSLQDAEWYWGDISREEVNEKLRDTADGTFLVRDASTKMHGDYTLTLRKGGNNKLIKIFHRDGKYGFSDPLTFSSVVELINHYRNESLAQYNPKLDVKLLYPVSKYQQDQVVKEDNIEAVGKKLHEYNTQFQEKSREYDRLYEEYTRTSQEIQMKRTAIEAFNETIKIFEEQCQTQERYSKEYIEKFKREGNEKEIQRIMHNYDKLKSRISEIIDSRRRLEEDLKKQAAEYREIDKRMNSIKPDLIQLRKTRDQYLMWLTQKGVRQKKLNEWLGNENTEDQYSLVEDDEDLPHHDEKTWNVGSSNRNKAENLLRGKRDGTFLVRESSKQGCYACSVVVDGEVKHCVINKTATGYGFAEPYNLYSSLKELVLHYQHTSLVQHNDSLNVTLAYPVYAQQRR

As for `CN1CC=C(c2cnc3ccc(Nc4nnc(C5CCCC5)s4)nc3c2)CC1` [Example 0333, 5-cyclopentyl-N-(7-(1-methyl-1,2,3,6-tetrahydropyridin-4-yl)-1,5-naphthyridin-2-yl)-1,3,4-thiadiazole-2-amine], the IC50 is 1000 to 10000 nM at human PI3Kα protein and below 1000 nM in assay [1].

Regarding `CC(=O)N1CC=C(c2cnc3ccc(Nc4nnc(C5CCCC5)s4)nc3c2)CC1` [Example 0334, 1-(4-(6-((5-cyclopentyl-1,3,4-thiadiazol-2-yl)amino)-1,5-naphthyridin-3-yl)-5,6-dihydropyridine-1(2H)-yl)ethanone], the IC50 (on human PI3Kα protein; in assay [1]) was below 1000 nM in each case.

With `CC(=O)N1CCC(c2cnc3ccc(Nc4nnc(C5CCCC5)s4)nc3c2)CC1` [Example 0335, 1-(4-(6-((5-Cyclopentyl-1,3,4-thiadiazol-2-yl)amino)-1,5-naphthyridin-3-yl)piperidin-1-yl)ethanone], the IC50 is 10000 to 50000 nM at human PI3Kα protein and below 1000 nM in assay [1].

Turning to `Cc1cnccc1-c1cnc2ccc(Nc3cc(C(C)C)cnn3)nc2c1` [Example 0361], the IC50 on human PI3Kα protein was 1000 to 10000 nM; in assay [1], below 1000 nM.

On to `CC(C)(C)c1nnc(Nc2ccc3ncc(-c4cnn(CCCN5CCCC5)c4)cc3n2)s1` [Example 0366], for which the IC50 (on human PI3Kα protein; in assay [1]) was below 1000 nM throughout.

With `OCCc1nnc(Nc2ccc3ncc(-c4cnn(CCCN5CCCC5)c4)cc3n2)s1` [Example 0367], the IC50 (at human PI3Kα protein; in assay [1]) was below 1000 nM each time.

For the compound `CC(C)c1cnnc(Nc2ccc3ncc(-c4ccccn4)cc3n2)c1` [Example 0369], the values for the IC50 (on human PI3Kα protein; in assay [1]) were 1000 to 10000 nM and below 1000 nM, respectively.

For the compound `CC(C)c1cnnc(Nc2ccc3ncc(-c4cnn(CCCN5CCC5)c4)cc3n2)c1` [Example 0371], the IC50 (at human PI3Kα protein; in assay [1]) was below 1000 nM throughout.

For `CC(C)c1cnnc(Nc2ccc3ncc(-c4cnn(Cc5ccccn5)c4)cc3n2)c1` [Example 0375, N-(5-isopropylpyridazin-3-yl)-7-(1-(pyridin-2-ylmethyl)-1H-pyrazol-4-yl)-1,5-naphthyridine-2-amine], the IC50 (at human PI3Kα protein; in assay [1]) was below 1000 nM each time.

As for `CC(C)c1cnnc(Nc2ccc3ncc(-c4cnn(Cc5cccnc5)c4)cc3n2)c1` [Example 0376], the IC50 (at human PI3Kα protein; in assay [1]) was below 1000 nM throughout.

As for `CC(C)c1cnnc(Nc2ccc3ncc(-c4cnn(CCc5ccncc5)c4)cc3n2)c1` [Example 0377], the IC50 (on human PI3Kα protein; in assay [1]) was below 1000 nM in each case.

On to `COC1CCCN(CCCn2cc(-c3cnc4ccc(Nc5cc(C(C)C)cnn5)nc4c3)cn2)C1` (stereo not drawn) [Example 0378, N-(5-isopropylpyridazin-3-yl)-7-(1-(3-(3-methoxypiperidin-1-yl)propyl)-1H-pyrazol-4-yl)-1,5-naphthyridine-2-amine], for which the IC50 (at human PI3Kα protein; in assay [1]) was below 1000 nM in each case.

Turning to `CC(C)c1cnnc(Nc2ccc3ncc(-c4cnn(CCCN5CCCC(C#N)C5)c4)cc3n2)c1` (stereo not drawn) [Example 0379, 1-(3-(4-(6-((5-Isopropylpyridazin-3-yl)amino)-1,5-naphthyridin-3-yl)-1H-pyrazol-1-yl)propyl)piperidine-3-carbonitrile], the IC50 (on human PI3Kα protein; in assay [1]) was below 1000 nM each time.

With `CC(C)c1cnnc(Nc2ccc3ncc(-c4cnn(CCn5ccnc5)c4)cc3n2)c1` [Example 0380, 7-(1-(2-(1H-imidazol-1-yl)ethyl)-1H-pyrazol-4-yl)-N-(5-isopropylpyridazin-3-yl)-1,5-naphthyridine-2-amine], the IC50 (at human PI3Kα protein; in assay [1]) was below 1000 nM throughout.

On to `CC(C)c1cnnc(Nc2ccc3ncc(-c4cnn(Cc5ccncc5)c4)cc3n2)c1` [Example 0381], for which the IC50 (on human PI3Kα protein; in assay [1]) was below 1000 nM throughout.

`CCc1nn(CCCN2CCOCC2)cc1-c1cnc2ccc(Nc3cc(C(C)C)cnn3)nc2c1` [Example 0385, 7-(3-ethyl-1-(3-morpholinopropyl)-1H-pyrazol-4-yl)-N-(5-isopropylpyridazin-3-yl)-1,5-naphthyridine-2-amine]: the IC50 (at human PI3Kα protein; in assay [1]) was below 1000 nM in each case.

In the case of `CCc1nn(CCCN2CCCC2)cc1-c1cnc2ccc(Nc3cc(C(C)C)cnn3)nc2c1` [Example 0386, 7-(3-ethyl-1-(3-(pyrrolidin-1-yl)propyl)-1H-pyrazol-4-yl)-N-(5-isopropylpyridazin-3-yl)-1,5-naphthyridine-2-amine], the IC50 (on human PI3Kα protein; in assay [1]) was below 1000 nM each time.

Turning to `CC(C)c1cnnc(Nc2ccc3ncc(Nc4cncnc4)cc3n2)c1` [Example 0387, N^2-(5-isopropylpyridazin-3-yl)-N^7-(pyrimidin-5-yl)-1,5-naphthyridine-2,7-diamine], the IC50 (at human PI3Kα protein; in assay [1]) was below 1000 nM each time.

As for `Cc1cnnc(Nc2ccc3ncc(Nc4cncnc4)cc3n2)c1` [Example 0388, N^2-(5-methylpyridazin-3-yl)-N^7-(pyrimidin-5-yl)-1,5-naphthyridine-2,7-diamine], the IC50 was 1000 to 10000 nM on human PI3Kα protein and below 1000 nM in assay [1].

For the compound `COCCc1nn(C)cc1-c1cnc2ccc(Nc3nnc(C(C)C)s3)nc2c1` [Example 0389, 5-isopropyl-N-(7-(3-(2-methoxyethyl)-1-methyl-1H-pyrazol-4-yl)-1,5-naphthyridin-2-yl)-1,3,4-thiadiazole-2-amine], the IC50 (on human PI3Kα protein; in assay [1]) was below 1000 nM each time.

Take `CCCc1nn(CCCN2CCCC2)cc1-c1cnc2ccc(Nc3cc(C(C)C)cnn3)nc2c1` [Example 0391, N-(5-isopropylpyridazin-3-yl)-7-(3-propyl-1-(3-(pyrrolidin-1-yl)propyl)-1H-pyrazol-4-yl)-1,5-naphthyridine-2-amine]: the IC50 (on human PI3Kα protein; in assay [1]) was below 1000 nM in each case.

Regarding `CC(C)c1cnnc(Nc2ccc3ncc(N4CCOCC4)cc3n2)c1` [Example 0392, N-(5-isopropylpyridazin-3-yl)-7-morpholino-1,5-naphthyridine-2-amine], the IC50 (on human PI3Kα protein; in assay [1]) was below 1000 nM each time.

As to `CC(C)c1cnnc(Nc2ccc3ncc(-c4cn(C)nc4CO[Si](C)(C)C(C)(C)C)cc3n2)c1` [Example 0393, 7-(3-(((tert-butyldimethylsilyl)oxy)methyl)-1-methyl-1H-pyrazol-4-yl)-N-(5-isopropylpyridazin-3-yl)-1,5-naphthyridine-2-amine], the IC50 at human PI3Kα protein was 1000 to 10000 nM; in assay [1], below 1000 nM.

`CC(C)c1cnnc(Nc2ccc3ncc(-c4cn(C)nc4CO)cc3n2)c1` [Example 0394, (4-(6-((5-isopropylpyridazin-3-yl)amino)-1,5-naphthyridin-3-yl)-1-methyl-1H-pyrazol-3-yl)methanol]: the IC50 (at human PI3Kα protein; in assay [1]) was below 1000 nM each time.

For `Cc1cnnc(Nc2ccc3ncc(-c4cn(C)nc4CO[Si](C)(C)C(C)(C)C)cc3n2)c1` [Example 0396, 7-(3-(((tert-butyldimethylsilyl)oxy)methyl)-1-methyl-1H-pyrazol-4-yl)-N-(5-methylpyridazin-3-yl)-1,5-naphthyridine-2-amine], the IC50 was 10000 to 50000 nM on human PI3Kα protein and below 1000 nM in assay [1].

Take `Cc1cnnc(Nc2ccc3ncc(-c4cn(C)nc4CO)cc3n2)c1` [Example 0397, (1-methyl-4-(6-((5-methylpyridazin-3-yl)amino)-1,5-naphthyridin-3-yl)-1H-pyrazol-3-yl)methanol]: the IC50 (on human PI3Kα protein; in assay [1]) was below 1000 nM in each case.

For the compound `CC(C)c1cnnc(Nc2ccc3ncc(-c4cnn(-c5cccnc5)c4)cc3n2)c1` [Example 0398, N-(5-isopropylpyridazin-3-yl)-7-(1-(pyridin-3-yl)-1H-pyrazol-4-yl)-1,5-naphthyridine-2-amine], the IC50 (on human PI3Kα protein; in assay [1]) was below 1000 nM each time.

As for `CC(C)c1cnnc(Nc2ccc3ncc(-c4cnn(-c5ccncc5)c4)cc3n2)c1` [Example 0399, N-(5-isopropylpyridazin-3-yl)-7-(1-(pyridin-4-yl)-1H-pyrazol-4-yl)-1,5-naphthyridine-2-amine], the IC50 on human PI3Kα protein is 1000 to 10000 nM; in assay [1], below 1000 nM.

Consider `CC(=O)OCC(C)(C)c1cnnc(Nc2ccc3ncc(-c4cnn(CCCN5CCCC5)c4)cc3n2)c1` [Example 0404, 2-Methyl-2-(6-((7-(1-(3-(pyrrolidin-1-yl)propyl)-1H-pyrazol-4-yl)-1,5-naphthyridin-2-yl)amino)pyridazin-4-yl)propyl acetate], for which the IC50 (on human PI3Kα protein; in assay [1]) was below 1000 nM in each case.

Take `CC(C)c1cnnc(Nc2ccc3ncc(-c4cccnc4)cc3n2)c1` [Example 0407]: the IC50 at human PI3Kα protein was 1000 to 10000 nM; in assay [1], below 1000 nM.

For the compound `Cn1cc(-c2cnc3ccc(Nc4ccc(NS(C)(=O)=O)nn4)nc3c2)cn1` [Example 0409], the IC50 on human PI3Kα protein was below 1000 nM; in assay [1] it was 1000 to 10000 nM.

With `CC(C)c1nnc(Nc2ccc3ncc(-c4cnn(C)c4-c4cnn(C)c4)cc3n2)s1` [Example 0476, N-(7-(1′,2-dimethyl-1′H,2H-[3,4′-bipyrazole]-4-yl)-1,5-naphthyridin-2-yl)-5-isopropyl-1,3,4-thiadiazole-2-amine], the IC50 (on human PI3Kα protein; in assay [1]) was below 1000 nM in each case.

Take `CC(C)c1nnc(Nc2ccc3ncc(-c4cn(C)nc4-c4cnn(C)c4)cc3n2)s1` [Example 0477]: the IC50 (on human PI3Kα protein; in assay [1]) was below 1000 nM throughout.

Source of the values: US9783536B2, “Nitrogen-containing heterocyclic compound or salt thereof” (FUJIFILM Corporation, priority 2013, dated 2017).
